Experimental data: US8361971B2, “Tablet formulation of ezatiostat” (Telik, Inc., priority 2010, dated 2013)

Assays:
Assay type in all cases: physicochemical
[1] = Description (appearance) of tablets on storage
Protocol: (§1) Tablets of ansolvate form D, were packaged with and without desiccant (Sorb-It Cannister, 1 gram). Fifty tablets were packaged in a round, white 1500 mL bottle with a screw cap over an induction seal. Impurities were assayed by HPLC. When stored at 25° C./60% RH with desiccant for 3 months, no increase in total impurities was observed. When stored at 40° C./75% RH with desiccant for 3 months, total impurities increased only by 0.3%. When stored at 40° C./75% RH without desiccant for 3 months, total impurities still increased by 1.1%. As tabulated below, the presence of desiccant appears to further increase the stability of the ansolvate form D. Even though the dissolution rate of tablets containing polymorph D from one batch was below specification (<70%) at an initial test as well as after 3 months at 25° C./60% RH with desiccant, the subsequent batches met the required specification.

[2] = Assay and impurities by HPLC of tablets on storage; parameters: key to Individual Impurities RRT = 0.74 / Individual Impurities RRT = 0.83 / TLK 236 RRT = 0.88 / Individual Impurities RRT = 0.94 / Individual Impurities RRT = 0.96 / Total impurities / Individual Impurities RRT = 0.80 / Individual Impurities RRT = 0.81 / Individual Impurities RRT = 0.86 / Individual Impurities RRT = 0.99: impurity content in %
Text: As used herein, “impurity” refers to one or more of: TLK 236, another polymorphic form of ezatiostat hydrochloride including without limitation form A, B, C, E, or F, and any other compound other than ezatiostat hydrochloride ansolvate, which may be identified by HPLC. TLK 236 is a monoester derived from the partial hydrolysis of ezatiostat where the phenyl glycine moiety remains esterified.
(§2) As described above, form E converts to form B simply during tableting.
as §1

[3] = Tablet dissolution (Q at 45 min); details: for Dissolution, Mean at 45 min: tablets
Text: Without being bound by theory, a higher dissolution rate relates to a higher amount of the active agent in the gastric fluid, which in turn relates to higher bioavailability of the active agent. A high bioavailability is desired, for example and without limitation, for reducing inter patient variability of drug exposure for a orally administered agent such as ezatiostat hydrochloride. […] The aqueous solubility can be measured in a variety of aqueous solvents, including without limitation, water, 0.9% aqueous NaCl, 5% dextrose for injection, phosphate buffered saline, and generally aqueous solutions having a pH of less than about 5. Such solvents may include suitable buffers and other salts. […]
as §1

[4] = Assay and impurities by HPLC of tablets on storage; parameters: key to Individual Impurities RRT = 0.74 / TLK 236 RRT = 0.88 / Individual Impurities RRT = 0.96 / Total impurities: impurity content in %; details: 6 Month at 40° C./75% RH without desiccant, hydrochloride
[5] = Water content of tablets on storage
Protocol: Karl Fischer analyses for water determination were performed on a Mettler Toledo DL39 Karl Fischer titrator. About 10-15 mg of sample was placed in the KF titration vessel containing approximately 100 mL of Hydranal®—Coulomat AD reagent and mixed for 60 seconds to ensure dissolution. The dissolved sample was then titrated by means of a generator electrode which produces iodine by electrochemical oxidation. […]
as §1

[6] = X-ray diffraction, polymorphic form in tablets; details: for X-ray Diffraction: tablets
Protocol: X-ray powder diffraction (XRPD) analyses were performed on a Shimadzu XRD-6000 X-ray powder diffractometer using Cu Kα radiation from a long fine focus X-ray tube, operated at 40 kV, 40 mA. The divergence and scattering slits were set at 1° and the receiving slit was set at 0.15 mm. Diffracted radiation was detected by a NaI scintillation detector. A θ-2θ continuous scan at 3°/min (0.4 sec/0.02° step) from 2.5°-40° 2θ was used. A silicon standard was analyzed to check alignment of the instrument. Data were collected and analyzed using XRD-6000 v.4.1 software.
Stress experiments: solids were stressed under different temperature and/or relative humidity (RH) environments for a measured time period. Specific RH values were achieved by placing the sample inside sealed chambers containing saturated salt solutions. Samples were analyzed by XRPD immediately after removal from the stress environment.
as §2, §1

[7] = 3 Month at 25° C./60% RH with desiccant
[8] = 3 Month at 40° C./75% RH with desiccant
[9] = 3 Month at 40° C./75% RH without desiccant
[10] = 6 Month at 40° C./75% RH without desiccant, hydrochloride
[11] = 3 Month at 40° C./75% RH without desiccant, hydrochloride
[12] = 3 Month at 40° C./75% RH without desiccant, listed as Form D Ansolvate, hydrochloride
[13] = Initial, listed as Form D Ansolvate, hydrochloride

Description [1, 7]: White round
Description [1, 8]: Off-white
Description [1, 9]: Off-white
Description [1, 10]: Brown round
Description ([1]; Initial): White round
Assay (HPLC) [2, 7]: 99.7 % Label Claim
Individual Impurities RRT = 0.74/0.72 [2, 7]: 0.16
Individual Impurities RRT = 0.96 [2, 7]: 0.19
TLK 236 RRT = 0.88 [2, 7]: 0.34
Total impurities [2, 7]: 0.7
Assay (HPLC) [2, 8]: 100.8 % Label Claim
Individual Impurities RRT = 0.74/0.72 [2, 8]: 0.16
Individual Impurities RRT = 0.83 [2, 8]: 0.09
Individual Impurities RRT = 0.94 [2, 8]: 0.06
Individual Impurities RRT = 0.96 [2, 8]: 0.19
TLK 236 RRT = 0.88 [2, 8]: 0.53
Total impurities [2, 8]: 1.0
Individual Impurities RRT = 0.74/0.72 [2, 9]: 0.18
Assay (HPLC) [2, 11]: 100.3 % Label Claim
Individual Impurities RRT = 0.74 [2, 11]: 0.21
Individual Impurities RRT = 0.83 [2, 11]: 0.07
Individual Impurities RRT = 0.94 [2, 11]: 0.07
Individual Impurities RRT = 0.96 [2, 11]: 0.19
TLK 236 RRT = 0.88 [2, 11]: 1.33
Total impurities [2, 11]: 1.9
Assay (HPLC) [2, 12]: 100.3 % Label Claim
Individual Impurities RRT = 0.83 [2, 12]: 0.08
Individual Impurities RRT = 0.94 [2, 12]: 0.07
Individual Impurities RRT = 0.96 [2, 12]: 0.18
TLK 236 RRT = 0.88 [2, 12]: 1.3
Total impurities [2, 12]: 1.8
Individual Impurities RRT = 0.83 [2, 10]: 0.09
increase in total impurities ([2]; 25° C./60% RH with desiccant for 3 months): no increase
increase in total impurities ([2]; 40° C./75% RH with desiccant for 3 months): 0.3%
increase in total impurities ([2]; 40° C./75% RH without desiccant for 3 months): 1.1%
Individual Impurities RRT = 0.74/0.72 ([2]; Initial): 0.21
Assay (HPLC) ([2]; Initial, hydrochloride): 101.4 % Label Claim
Individual Impurities RRT = 0.74 ([2]; Initial, hydrochloride): 0.21
Individual Impurities RRT = 0.96 ([2]; Initial, hydrochloride): 0.18
TLK 236 RRT = 0.88 ([2]; Initial, hydrochloride): 0.35
Total impurities ([2]; Initial, hydrochloride): 0.7
Assay (HPLC) [2, 13]: 101.4 % Label Claim
Individual Impurities RRT = 0.96 [2, 13]: 0.18
TLK 236 RRT = 0.88 [2, 13]: 0.35
Total impurities [2, 13]: 0.7
Dissolution, Mean at 45 min ([3]; 3 Month at 25° C./60% RH with desiccant, listed as Form D Ansolvate, hydrochloride): Mean = 46 % of label claim
Dissolution, Mean at 45 min ([3]; 3 Month at 25° C./60% RH with desiccant, listed as polymorph D, hydrochloride): < 70 % of label claim
Dissolution, Mean at 45 min [3, 8]: Mean = 76 % of label claim
Dissolution, Mean at 45 min [3, 11]: Mean = 88 % of label claim
Dissolution, Mean at 45 min [3, 12]: Mean = 88 % of label claim
Dissolution, Mean at 45 min [3, 10]: Mean = 81 % of label claim
Dissolution, Mean at 45 min ([3]; Initial, hydrochloride): Mean = 51 % of label claim
Dissolution, Mean at 45 min [3, 13]: Mean = 51 % of label claim
Dissolution, Mean at 45 min ([3]; Initial, listed as polymorph D, hydrochloride): < 70 % of label claim
Assay (HPLC) [4]: 96.5 % Label Claim
Individual Impurities RRT = 0.59/0.62 [4]: 0.08
Individual Impurities RRT = 0.74 [4]: 0.20
Individual Impurities RRT = 0.96 [4]: 0.23
TLK 236 RRT = 0.88 [4]: 2.07
Total impurities [4]: 2.7
Water Content [5, 7]: 0.5%
Water Content [5, 8]: 0.6%
Water Content [5, 11]: 0.8%
Water Content [5, 12]: 0.8%
Water Content [5, 10]: 0.8%
Water Content ([5]; Initial, hydrochloride): 0.9%
Water Content [5, 13]: 0.9%
X-ray Diffraction [6, 7]: Polymorph D
X-ray Diffraction [6, 8]: Polymorph D
X-ray Diffraction [6, 11]: Polymorph D
X-ray Diffraction [6, 12]: Polymorph D
X-ray Diffraction [6, 10]: Polymorph D
X-ray Diffraction ([6]; Initial, hydrochloride): Polymorph D
X-ray Diffraction [6, 13]: Polymorph D
SMILES: CCOC(=O)[C@@H](N)CCC(=O)N[C@@H](CSCc1ccccc1)C(=O)N[C@@H](C(=O)OCC)c1ccccc1.Cl [Polymorph Form D, ezatiostat hydrochloride]
aqueous dissolution rate ([3]; as part of a tablet, measured in 0.1 molar HCl): higher aqueous dissolution rate than polymorphic form E
polymorphic conversion on storage ([6]; 40° C. and 75% RH without a desiccant, form D 6 months, form E 3 months, listed as ansolvate form D, hydrochloride): resistance to conversion to a solvate form
